Experimental findings from PubChem BioAssay (NCI) are described below.

Among the test systems are SW-620 colon; COLO 205 colon; IGROV1 ovarian; NCI-H226 lung; HCT-116 colon; M14 melanoma; PC-3 prostate; MOLT-4 leukemia; NCI-H522 lung; MALME-3M melanoma.
Holding throughout (test): NCI tumour cell line growth inhibition, 48 h

Molecules are shown by their SMILES.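 Tested at 5 concentrations; 48 h exposure; 96-well plates; endpoints linearly interpolated, else capped at highest concentration. GI50: concentration for 50% inhibition of growth. TGI denotes the concentration required for complete inhibition of growth.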 Bounds are passed on as bounds.

As to `Cc1[nH]c2ccccc2c1-c1cc(-c2cc(-c3c(C)[nH]c4ccccc34)nc(N)n2)nc(N)n1`, the TGI in the assay with SW-620 colon, with COLO 205 colon, with IGROV1 ovarian, in the assay on NCI-H226 lung, with HCT-116 colon and with M14 melanoma was greater than 100 µM in each case. Also, the TGI in the assay on PC-3 prostate, in the assay with MOLT-4 leukemia, with NCI-H522 lung and in the assay on MALME-3M melanoma was greater than 100 µM in each case.
Regarding `O=c1c(O)cccc2cc(O)c(O)c(O)c12`, the GI50 in the assay with SW-620 colon is 20.2 µM; in the assay on COLO 205 colon, greater than 100 µM; in the assay on IGROV1 ovarian it was 5.06 µM; in the assay on NCI-H226 lung, greater than 100 µM; in the assay on HCT-116 colon it was 7.67 µM; with M14 melanoma it was 30.6 µM. For the same compound, the GI50 is 54.1 µM with PC-3 prostate, 16.9 µM in the assay with MOLT-4 leukemia, 3.63 µM in the assay with NCI-H522 lung and 4.99 µM in the assay with MALME-3M melanoma. The TGI with SW-620 colon was greater than 100 µM; in the assay on COLO 205 colon it was greater than 100 µM; in the assay on IGROV1 ovarian, 27 µM; with NCI-H226 lung, greater than 100 µM; in the assay on HCT-116 colon, greater than 100 µM; in the assay on M14 melanoma, greater than 100 µM. Moreover, the TGI in the assay with PC-3 prostate was greater than 100 µM; in the assay with MOLT-4 leukemia it was greater than 100 µM; with NCI-H522 lung it was 14.5 µM; in the assay with MALME-3M melanoma, greater than 100 µM.
For `COc1ccc(-c2nc(C(=O)c3ccccc3)n(CC(=O)c3ccccc3)c2-c2ccc(OC)cc2)cc1`, the GI50 in the assay with SW-620 colon, in the assay on COLO 205 colon, with IGROV1 ovarian, with NCI-H226 lung, in the assay on HCT-116 colon and with M14 melanoma was greater than 100 µM in each case. For the same compound, the GI50 in the assay with PC-3 prostate, in the assay on MOLT-4 leukemia, with NCI-H522 lung and in the assay with MALME-3M melanoma was greater than 100 µM in each case. The TGI with SW-620 colon, in the assay on COLO 205 colon, in the assay with IGROV1 ovarian, in the assay on NCI-H226 lung, with HCT-116 colon and with M14 melanoma was greater than 100 µM in each case. Further, the TGI with PC-3 prostate, in the assay with MOLT-4 leukemia, in the assay with NCI-H522 lung and in the assay with MALME-3M melanoma was greater than 100 µM each time.
For the compound `COC(=O)c1c(O)c([N+](=O)[O-])cc2c1c1c(n2Cc2ccccc2)C(=O)c2ccccc2C1=O`, the GI50 was 2.97 µM in the assay on SW-620 colon; 2.18 µM with COLO 205 colon; 35.1 µM in the assay with IGROV1 ovarian; 26.4 µM with NCI-H226 lung; 4.06 µM with HCT-116 colon; 10.6 µM in the assay with M14 melanoma. In addition, the GI50 in the assay on PC-3 prostate is 15.4 µM; in the assay with NCI-H522 lung, 23.3 µM; with MALME-3M melanoma, 23.4 µM. Moreover, the TGI with SW-620 colon was 11.4 µM; in the assay with COLO 205 colon, 6.82 µM; with IGROV1 ovarian, greater than 100 µM; with NCI-H226 lung, 62.9 µM; in the assay on HCT-116 colon, 17.5 µM; in the assay with M14 melanoma it was 24.1 µM. Besides, the TGI in the assay with PC-3 prostate was determined as 53.9 µM; in the assay with NCI-H522 lung, 65.6 µM; in the assay with MALME-3M melanoma, 46 µM.
For the compound `CCN(CC)CCCC(C)Nc1nc(C)cc(Nc2ccc3nc(C)cc(N)c3c2)n1` (centres undefined), the GI50 in the assay with SW-620 colon is 35.8 µM; in the assay with COLO 205 colon it was 39.5 µM; in the assay with IGROV1 ovarian, 28 µM; in the assay on NCI-H226 lung, greater than 100 µM; with HCT-116 colon, 32.4 µM; in the assay with M14 melanoma it was 33.7 µM. Moreover, the GI50 in the assay with PC-3 prostate was 12.4 µM; in the assay with NCI-H522 lung it was 23.9 µM; with MALME-3M melanoma, 24.7 µM. For the same compound, the TGI with SW-620 colon, with COLO 205 colon, in the assay with IGROV1 ovarian, in the assay with NCI-H226 lung, with HCT-116 colon and in the assay on M14 melanoma was greater than 100 µM in each case. Besides, the TGI in the assay on PC-3 prostate is 37.8 µM; in the assay with NCI-H522 lung it was 91.9 µM; in the assay on MALME-3M melanoma, 70.2 µM.
In the case of `Cc1cc2cn3c4ccc(O)cc4[nH]c(=O)c3c2cc1C`, the GI50 with SW-620 colon was 0.0105 µM; with COLO 205 colon it was 0.174 µM; with NCI-H226 lung, 0.0399 µM; with PC-3 prostate, 0.0542 µM; in the assay on NCI-H522 lung, 0.0164 µM. The TGI with SW-620 colon was determined as 1.53 µM; with COLO 205 colon, 0.927 µM; in the assay with NCI-H226 lung, 0.859 µM; in the assay on PC-3 prostate, 1.7 µM; with NCI-H522 lung, 0.0697 µM.
With `O=C(Nc1ccccc1O)c1ccc(CNc2ccnc(C(F)(F)F)c2)cc1`, the GI50 in the assay on SW-620 colon is 5.75 µM; with COLO 205 colon, 14.7 µM; in the assay with IGROV1 ovarian, 7.64 µM; with NCI-H226 lung, 6.56 µM; in the assay with HCT-116 colon, 3.96 µM; with M14 melanoma it was 3.86 µM. For the same compound, the GI50 in the assay with PC-3 prostate is 2.72 µM; in the assay with MOLT-4 leukemia, 2.38 µM; in the assay with MALME-3M melanoma it was 1.03 µM. Further, the TGI was 23 µM with SW-620 colon; 31.3 µM in the assay with COLO 205 colon; 32.9 µM with IGROV1 ovarian; 33.8 µM in the assay with NCI-H226 lung; 34.9 µM in the assay on HCT-116 colon; 38 µM in the assay with M14 melanoma. The TGI in the assay with PC-3 prostate turned out to be 48.4 µM; in the assay on MOLT-4 leukemia it was 28.5 µM; with MALME-3M melanoma it was 11.6 µM.
On to `COc1ccc(/C=C2\CC(C)CC3C2=NN(C(C)=O)C3c2ccc(OC)cc2)cc1` (centres undefined), for which the GI50 is 21.8 µM in the assay on SW-620 colon; 25.7 µM in the assay with COLO 205 colon; 31.6 µM in the assay with IGROV1 ovarian; 16.5 µM with NCI-H226 lung; 24.2 µM with PC-3 prostate; 16.1 µM with MOLT-4 leukemia. Further, the GI50 is 21.5 µM in the assay with NCI-H522 lung and 17.8 µM in the assay with MALME-3M melanoma. Also, the TGI is 59 µM with SW-620 colon; 92.5 µM in the assay with COLO 205 colon; greater than 100 µM in the assay with IGROV1 ovarian; 39.1 µM with NCI-H226 lung; greater than 100 µM in the assay with PC-3 prostate; 50.1 µM in the assay on MOLT-4 leukemia. The figures for the TGI in the assay on NCI-H522 lung and in the assay on MALME-3M melanoma were 83.9 µM and 37.9 µM, respectively.
In the case of `CCN1C2=NCCN2S(=O)(=O)c2ccccc21`, the TGI in the assay with SW-620 colon, with COLO 205 colon, in the assay with IGROV1 ovarian, in the assay with NCI-H226 lung, in the assay with HCT-116 colon and in the assay on M14 melanoma was greater than 100 µM throughout. In addition, the TGI in the assay with PC-3 prostate, in the assay with MOLT-4 leukemia and with NCI-H522 lung was greater than 100 µM throughout.
